Test results from the METLIN SMRT retention time set (Domingo-Almenara et al. 2019).

Assay: gradient 5% acetonitrile 3 min, to 50% in 2 min, to 85% in 15 min, held 3 min, 100 µL/min
Details: column: Zorbax Extend-C18 2.1 x 50 mm; eluents: water / acetonitrile, 0.1% formic acid
Procedure, shortened: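 Values are retention times taken from adduct peaks that software picked and an analyst inspected. The pure standards were run as mixtures of ~100 molecules on HPLC linked to a quadrupole time-of-flight mass spectrometer, in positive and negative ionization mode. A Zorbax Extend-C18 column (2.1 × 50 mm, 1.8 μm) was used at 100 μL/min with water and acetonitrile, each including 0.1% formic acid.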

| Compound | RP-LC retention time |
| --- | --- |
| COc1ccc(-c2ncccc2CNS(=O)(=O)c2ccc(C(F)(F)F)cc2)cc1 | 764 s |
| CCn1c(=O)oc2cc(-c3noc(-c4ccc(C(F)(F)F)cc4)n3)ccc21 | 1220 s |
| O=C(NCC1CCOCC1)Nc1ccc(C(F)(F)F)cc1 | 734 s |
| COc1cccc(OCC2c3ccsc3CCN2C(=O)CN(C(=O)NC(C)C)C2CC2)c1 (stereo not drawn) | 918 s |
| O=C1C(N2CCN(S(=O)(=O)c3ccccc3)CC2)CCN1CCc1ccccc1 (stereo not drawn) | 642 s |
| COc1ccc(-c2nn3c(-c4ccc5ccccc5n4)nnc3s2)cc1OC | 886 s |
| O=C(NCc1ccc(F)cc1)N1CC(F)(F)C[C@H]1c1nnc(-c2cnccn2)o1 | 747 s |
| CCCC(=O)Nc1nc(-c2ccc3c(c2)N(CCC)C(=O)CO3)cs1 | 935 s |
| COC[C@@H]1CN(S(=O)(=O)c2ccc(C#N)cc2)C[C@H]1c1ccncc1 | 746 s |
| CCOc1ccc(-c2noc(CN3C(=O)COc4ccc(S(=O)(=O)CC)cc43)n2)cc1OC | 873 s |
| COc1ccc(-c2csc(Cc3nc(-c4ccccc4Cl)no3)n2)cc1 | 1160 s |
| CCOc1ccc(Br)cc1C(=O)N1CCNC(=O)C1CC(=O)OC1CCCCC1 (stereo not drawn) | 876 s |
| COCc1c(C(=O)O)nnn1Cc1ccccc1C | 714 s |
| COC(=O)c1c(C)[nH]c(C(=O)N2CCCC(C(=O)N3CCC(C)CC3)C2)c1C (stereo not drawn) | 758 s |
| CSc1ccc(-c2noc(CN3C(=O)COc4ccc(C(C)(C)C)cc43)n2)cc1 | 1300 s |
| COc1ccc(C(=O)Nc2nc(-c3ccc4c(c3)NC(=O)C(C)O4)c(C)s2)cc1OC (stereo not drawn) | 867 s |
| OCCCc1nc2ccccc2n1Cc1ccccc1Cl | 568 s |
| COc1ccc(C(=O)Nc2nc(-c3ccc([N+](=O)[O-])cc3)cs2)cc1OC | 1010 s |
| COCCN1C(=O)CC[C@]2(C(=O)N(C)CCc3ccccn3)CCCC[C@@H]12 | 546 s |
| COCc1noc([C@@H]2CC(F)(F)CN2C(=O)c2cncn2C)n1 | 584 s |
| COc1ccc(-c2cc3c(=O)n(CC(=O)Nc4ccc(C)c(F)c4)ccn3n2)cc1OC | 780 s |
| Cc1cccc(N2CCN(Cc3nc(-c4ccc(N5CCC(C)CC5)nc4)no3)CC2)c1C | 1280 s |
| COc1ccc2nc3oc(C(=O)NCCc4ccsc4)cc3cc2c1 | 901 s |

| Compound | RP-LC retention time |
| --- | --- |
| Cc1nc2cc(-c3noc(C4CC(=O)N(c5ccccc5)C4)n3)ccc2n(C2CCCC2)c1=O (stereo not drawn) | 1030 s |
| CCOc1ccc(NC(=O)Nc2nccn(-c3ccccc3OC)c2=O)cc1 | 935 s |
| CC(C)S(=O)(=O)N1CCC(F)(c2nc(-c3ccccc3)no2)CC1 | 1020 s |
| COc1cc(-c2nnc(SCC(=O)N3CCCC(C)C3)o2)cc(OC)c1OC (stereo not drawn) | 889 s |
| O=C(Cn1ccnc1)N1CCCCC1c1nncn1Cc1ccccc1 (stereo not drawn) | 579 s |
| COC(=O)C1CCC(=O)N1C(c1ccc(OC)cc1)c1cc(OC)c(OC)c(OC)c1 (stereo not drawn) | 753 s |
| Cc1cc(C)cc(NC(=O)Cn2c(C)nc3onc(C)c3c2=O)c1 | 802 s |
| COCCn1nnnc1C1CC2(CCOCC2)C(=O)N1CCc1ccc(OC)c(OC)c1 (stereo not drawn) | 685 s |
| Cc1ccccc1-c1noc(-c2nn(-c3cccc(F)c3)ccc2=O)n1 | 941 s |
| O=C(c1cn2c(n1)COCC2)N(Cc1ccccc1)Cc1ccco1 | 716 s |
| Cc1ccc(C(=O)N2CC(c3nc(CCOCC4CC4)no3)C2)s1 | 806 s |
| CC(C)Cn1cc(CCNS(=O)(=O)c2cccc(Br)c2)c2cccnc21 | 990 s |
| CCc1nn2c(CNC(=O)C3CCC3)c(-c3ccccc3)nc2s1 | 804 s |
| COc1ccc(-c2noc(-c3ccc(N4CCN(c5ccccc5OC)CC4)nc3)n2)cc1 | 1310 s |
| CCCNc1nc(-c2ccc(Br)cc2)cs1 | 1000 s |
| COc1ccc(F)cc1S(=O)(=O)N1CCN(C2CCN(C)C2=O)CC1 (stereo not drawn) | 550 s |
| O=c1c2ccccc2c(-c2nc(-c3ccncc3)no2)cn1-c1ccccc1 | 1050 s |
| CCOC(=O)CCC(=O)NCC1CN(c2ccc(F)cc2)C(=O)O1 (stereo not drawn) | 666 s |
| Cc1ccccc1S(=O)(=O)N1CCC(CCC(=O)NC2CCS(=O)(=O)C2)CC1 (stereo not drawn) | 726 s |
| COc1ccccc1-n1ccn(Cc2nc(-c3ccc(Cl)cc3)no2)c(=O)c1=O | 874 s |
| O=C(Cn1cnc2ccccc21)OCc1cc(-c2ccc3c(c2)OCO3)on1 | 639 s |
| COC(=O)c1ncn2c1C(=O)N(Cc1ccc(F)cc1)C(C)(C(=O)NCc1ccccc1)C2 (stereo not drawn) | 714 s |

Further lines, results first:

| RP-LC retention time | Compound |
| --- | --- |
| 986 s | Cc1cc2nc(C(=O)Nc3ccc(F)c(F)c3)cc(C)n2n1 |
| 903 s | Cc1cc(NC(=O)Nc2ccc3nnc(C4CCC4)n3c2)ccc1Br |
| 734 s | O=C(NCc1ccco1)C1CC(=O)N(c2ccc3c(c2)CCN3C(=O)C2CCC2)C1 (stereo not drawn) |
| 868 s | CCCCN(C)C(=O)c1c(C)oc2ccn(Cc3ccc(F)cc3)c(=O)c12 |
| 711 s | O=C(NCc1ccco1)c1ncoc1-c1ccccc1C(=O)N1CCCC1 |
| 809 s | CCCS(=O)(=O)c1ccc(N2CCN(c3ccccc3OC)CC2)nn1 |
| 621 s | Cc1cc(Nc2nc(C(=O)NCCN3CCOCC3)cc3occc23)ccc1Br |
| 1180 s | COc1cccc(S(=O)(=O)N2CCC(c3noc(-c4cccc(C)c4)n3)CC2)c1 |
| 1020 s | Cc1cccc(-c2noc(-c3sc4ncn(CC(=O)N5CCCC5)c(=O)c4c3C)n2)c1 |
| 600 s | CC(=O)Nc1cc(C(=O)NC2CCCC2)c2ccc(C)nc2c1 |
| 942 s | CCc1cccc(NC(=O)C2CCN(S(=O)(=O)c3ccc4c(c3)CC(C)N4C(C)=O)CC2)c1 (stereo not drawn) |
| 917 s | Cc1ccc(S(=O)(=O)NCCc2nc(-c3cccc(-c4ccnn4C)c3)no2)cc1 |
| 1230 s | Cc1noc(C)c1S(=O)(=O)Nc1cccc(-c2nc(-c3cccc(Br)c3)co2)c1 |
| 703 s | COc1cc2c(cc1OC)CN(C(=O)c1cc(-c3cccs3)[nH]n1)CC2 |
| 689 s | Cc1cccc(NC(=O)N2CCC(c3nc(C(=O)N(C)C)c(C)o3)CC2)c1 |
| 840 s | Cc1cc(S(=O)(=O)N2CCC(n3cnnc3-c3ccccc3)CC2)ccc1F |
| 865 s | CCN(CC)c1ccc(-c2noc(CN3CCN(c4cccc(C)c4)CC3)n2)cn1 |
| 675 s | Nc1cc(C2CCN(C(=O)c3ccc(F)cc3)CC2)no1 |
| 752 s | Cc1cccc(CNC2=NCCNC23CCN(S(=O)(=O)c2ccccc2C)CC3)c1 |
| 657 s | O=C(c1ccco1)N1CCc2c(c(CO)nn2Cc2ccccc2)C1 |
| 896 s | Cc1ccc(CNC(=O)Cc2csc3nc(-c4ccc(C)c(C)c4)cn23)cc1 |
| 931 s | O=C(CN1CCN(Cc2cccc(Cl)c2)C1=O)NCc1ccc(C(F)(F)F)cc1 |

| RP-LC retention time | Compound |
| --- | --- |
| 750 s | O=C(CN1C(=O)C2CCCCN2c2ccc(S(=O)(=O)N3CCCC3)cc21)N1CCOCC1 (stereo not drawn) |
| 615 s | Cc1ccc(CNC(=O)Cn2ncc3c(N4CCN(c5ccccn5)CC4)ncnc32)cc1 |
| 1180 s | COc1c(C(=O)Nc2ccc3c(c2)OCO3)sc2cc(Cl)ccc12 |
| 725 s | CC(C)c1nnc(-c2cccnc2N2CCN(C(=O)c3ccoc3)CC2)o1 |
| 681 s | Cc1ccc2c(Nc3ccc(C)c(C)c3)c(C(=O)N3CCC(C)CC3)cnc2n1 |
| 770 s | O=C(CNC(=O)Cc1ccc(Cl)cc1)NCC(=O)N1CCCc2ccccc21 |
| 900 s | CCN1C(=O)c2ccccc2Oc2ccc(C(=O)N3CCCCCC3)cc21 |
| 769 s | O=C(c1ccc[nH]1)N1CCC2(CC1)NC(=O)N(Cc1cccc(Cl)c1)C2=O |
| 758 s | COc1ccc(OC)c(C(O)CN2CCN(c3cc(C)ccc3C)CC2)c1 (stereo not drawn) |
| 770 s | Cc1cc(Cl)ccc1NC(=O)Cn1cnc2nc3c(cc2c1=O)CCCC3 |
| 1150 s | COc1ccc(C)cc1NC(=O)N1c2ccccc2CC1c1nc(C2CC2)no1 (stereo not drawn) |
| 708 s | CC(C)C(=O)N1CCc2c(c(C(=O)NCc3ccc4c(c3)OCO4)nn2C)C1 |
| 558 s | O=C(NCCN1CCOCC1)c1cc2cc(Cl)ccc2o1 |
| 987 s | COc1ccc(Cl)cc1S(=O)(=O)NCCc1cn(CC(C)C)c2ncccc12 |
| 832 s | CCN1C(=O)c2cccnc2Sc2cc(NC(=O)c3ccc(F)cc3)ccc21 |
| 739 s | Cc1oc(-c2[nH]ncc2C(=O)N2CCCC2)cc1S(=O)(=O)Nc1ccc(Cl)cc1 |
| 958 s | O=C(NCCC1=CCCCC1)c1ccc2ccnc(N3CCN(c4ccccc4)CC3)c2c1 |
| 699 s | CCc1ccc(NC(=O)Cn2c(N3CCCC3)nc(C)cc2=O)cc1 |
| 930 s | O=C(NC1CCCCCCC1)C1CCN(Cc2cc3ccccc3n2Cc2cccc(Cl)c2)CC1 |
| 637 s | Cc1ccccc1NC(=O)CSc1ccc(N2CCCC(C(=O)NC3CC3)C2)nn1 (stereo not drawn) |
| 663 s | O=C(c1ccsc1)N1CCC(c2nncn2Cc2ccccc2)CC1 |
